Here are results for one compound from US9939427B2, “Method for evaluating the scent performance of perfumes or perfume mixtures” (Symrise AG, priority 2013, dated 2018).

One experiment relates to OR10Q1-614. In words: Ca-imaging of mutant OR10Q1 in HEK293 cells. Type of experiment: cell-based, human. To be noted: 200 μM, applied for 20 seconds. The source says:
Mutations were introduced for OR1B1 and OR10Q1 by Overlap Extension PCR (OEP). […] Flanking primers in combination with internal primers provided mutated gene segments, Full length primers included EcoRI and NotI restriction sites for further cloning into pCI expression vector. Site-directed mutations were selected for base of minor allele frequency of nucleotide.
In mutagenesis by overlap extension PCR method, initial PCRs provided mutated gene segments, with overlapping complementary 3′ ends carrying desired point mutation that were then mixed and used as template for a subsequent PCR to generate the full-length product. Overlapping strands of these intermediate products hybridize at this 3′ region in a subsequent PCR and are extended to generate the full-length product amplified by flanking primers; this shown in FIG. 2. […]
Calcium imaging of the transfected HEK293 cells was done by using chambers determinate an inverted microscope (Olympus; IX70) using a 10× objective (CPIanFL N Olympus). Fluorescence emission was determined every 4 s by using a CCD camera (Charge Coupled Device, C9100 Hamamatsu). […] Odorants were manually monitored to drop each 4-5 s to transfected cells. […]
In experiments, Fura-2 Acetoxymethylester (Fura-2/AM) was applied. […] According to this feature, the analysis of 340/380 nm excitation ratio for Fura-2 allows to quantify intracellular calcium levels. […]

In another experiment the target is T1, OR10Q1 (Homo sapiens, UniProt Q8NGQ4).
T1 construct: specific primers, which amplify the complete open reading frame; expressed in transfected cells; host or cells: HEK293
T1 sequence (Q8NGQ4 1-319): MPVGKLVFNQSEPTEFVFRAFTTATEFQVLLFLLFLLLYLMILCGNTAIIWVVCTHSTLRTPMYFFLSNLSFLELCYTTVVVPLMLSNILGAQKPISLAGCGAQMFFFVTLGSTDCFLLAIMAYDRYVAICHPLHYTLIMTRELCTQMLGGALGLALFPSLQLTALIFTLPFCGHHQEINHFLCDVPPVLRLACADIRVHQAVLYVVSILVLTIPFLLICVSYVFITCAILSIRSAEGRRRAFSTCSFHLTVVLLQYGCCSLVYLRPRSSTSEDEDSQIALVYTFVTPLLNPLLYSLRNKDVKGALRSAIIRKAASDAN
Description: CRE-luciferase assay, OR10Q1 in HANA3A cells. The class given is cell-based. To be noted: 50 μM, 100 μM, 150 μM, 200 μM and 250 μM; ratio of firefly to renila. The procedure:
Calcium cations and phosphate anions created crystal precipitations coupled with DNA which could invade into the cells through endocytosis. Cells were transiently transfected with plasmid DNA which consists of pCI expression vector and PCR-amplified full-length cDNA of olfactory receptors candidates, and also Gα15, RTP1, Myr-Ric8A, HSC70, and m-Cherry as cofactors. The precipitation could be created after 15-20 min, with dropping the transfection solution on HEK293 cells. Before measuring by Ca-imaging cells were incubated 48-60 hours at 370 C, 5% CO2. Cationic liposome-mediated transfection method was applied to transfect DNA plasmid transiently in HANA3A cells in case of CRE-Luciferase and CRE-SEAP assays. […]
ORs responded by Ca-imaging with seven separate odorant mixtures formed from 66 odorants. […] Transfected HANA3A cells on poly-D-lysine-coated 96 well plates are ready for stimulation after 24 h. […] Measuring by plate reader (Luminometer). • 6. […] Measuring by plate reader (Luminometer). • 8. According to manufacturer's protocols for measuring luciferase and renilla activities, calculate normalized luciferase activity with using the formula (Ln-Lmin)/(Lmax-Lmin), where Ln is the luminescence of firefly in response to the odorant, L min is the minimum luciferase value on a plate, and L max is the maximum luciferase value on plate. […]

For `O=C1CCCCCCCCCCCCCCO1` [Pentadecanolide, ω-cyclopentadecanolide], the “Response of mutated OR10Q1 in comparison with OR10Q1 WT” value with OR10Q1-614 was “does not show any significant difference”; in the experiment with OR10Q1-614 (listed as pentadecalactone), “did not show any difference”. In addition, the “CRE-luciferase (cAMP assay) response of OR10Q1” value on OR10Q1 is “positive responses”.
